In brackets after ≈: the same amount, converted by molar mass. Activity calls are given as the source filed them. No cut-off for these calls is given here.
Key:
[1] = target: T1, 1,4-dihydroxy-2-naphthoyl-CoA synthase (Mycobacterium tuberculosis, UniProt P9WNP5); assay: Inhibition of Mycobacterium tuberculosis MenB expressed in Escherichia coli BL21 (DE3) by double-reciprocal plot analysis
T1 sequence (P9WNP5 whole entry): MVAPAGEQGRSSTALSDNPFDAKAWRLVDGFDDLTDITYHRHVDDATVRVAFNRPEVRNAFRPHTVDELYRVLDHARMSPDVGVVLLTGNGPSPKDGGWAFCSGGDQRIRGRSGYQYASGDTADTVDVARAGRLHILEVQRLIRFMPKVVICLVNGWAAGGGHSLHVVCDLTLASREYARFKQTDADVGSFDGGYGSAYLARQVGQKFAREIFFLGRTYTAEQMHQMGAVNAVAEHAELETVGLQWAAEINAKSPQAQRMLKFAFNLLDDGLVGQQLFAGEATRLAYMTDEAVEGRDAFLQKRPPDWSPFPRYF

[2] = test system: Mycobacterium tuberculosis; assay: Antibacterial activity against Mycobacterium tuberculosis H37Rv after 5 to 7 days by alamar blue assay; format: functional
[3] = target: T2, 1,4-dihydroxy-2-naphthoyl-CoA synthase (Mycobacterium tuberculosis) (UniProt P9WNP5); assay: Inhibition of Mycobacterium tuberculosis MenB expressed in Escherichia coli BL21 (DE3) up to 100 uM by double-reciprocal plot analysis
T2 sequence (whole entry): T1 sequence (P9WNP5 whole entry)

Escherichia coli [4] = assay: Antibacterial activity against Escherichia coli M17 assessed as bacterial growth inhibition; format: functional, organism-based
Staphylococcus aureus = assay: Antibacterial activity against Staphylococcus aureus P209 assessed as bacterial growth inhibition; format: functional, organism-based
Escherichia coli [5] = assay: Inhibition of Escherichia coli MenE expressed in Escherichia coli BL21 (DE3) at 50 uM by double-reciprocal plot analysis
[6] = target: T2, 1,4-dihydroxy-2-naphthoyl-CoA synthase (Mycobacterium tuberculosis); assay: Inhibition of Mycobacterium tuberculosis MenB expressed in Escherichia coli BL21 (DE3) at 125 ug/ml by double-reciprocal plot analysis
Mycobacterium avium = assay: Antibacterial activity against Mycobacterium avium; format: functional
[7] = target: T1, 1,4-dihydroxy-2-naphthoyl-CoA synthase; assay: Non-competitive inhibition of Mycobacterium tuberculosis MenB expressed in Escherichia coli BL21 (DE3) assessed as inhibition of enzyme-substrate complex formation
[8] = target: T1, 1,4-dihydroxy-2-naphthoyl-CoA synthase; assay: Non-competitive inhibition of Mycobacterium tuberculosis MenB expressed in Escherichia coli BL21 (DE3)

## COC(=O)/C=C1\Nc2ccc(F)cc2OC1=O
[1]
  IC50: 30 µM
[2]
  MIC: 0.63 mg/L (≈ 2.66 µM)

## O=C1Oc2cc(Cl)ccc2N/C1=C\C(=O)c1ccccc1Cl
[3]
  inhibition: inactive
Escherichia coli [4]
  growth inhibition (GI): Active
Staphylococcus aureus
  growth inhibition (GI): Active
[2]
  MIC: 3.13 mg/L (≈ 9.37 µM)

## CC(C)(C)/C(O)=C/c1nc2ccccc2oc1=O
Escherichia coli [5]
  inhibition: inactive
[6]
  inhibition: 68.4%

## CCS(=O)(=O)c1ccc2c(c1)N/C(=C\C(=O)C(C)(C)C)C(=O)O2
Escherichia coli [5]
  inhibition: inactive
[6]
  inhibition: 60.3%

## COC(=O)/C=C1\Nc2ccccc2NC1=O
Mycobacterium avium
  Activity: >64 µg/mL
[1]
  IC50: > 122 µM
[2]
  MIC: > 100 mg/L

## COC(=O)/C=C1\Nc2ccc(Cl)cc2OC1=O
[1]
  IC50: 35.7 µM
[2]
  MIC: 0.63 mg/L (≈ 2.48 µM)

## COC(=O)/C=C1\Nc2ccccc2OC1=O
[7]
  Ki: 67 µM
[8]
  Ki: 9.1 µM
[1]
  IC50: 10 µM
[2]
  MIC: 0.64 mg/L (≈ 2.92 µM)

## CCS(=O)(=O)c1ccc2c(c1)N/C(=C\C(=O)OC)C(=O)O2
[1]
  IC50: 17.9 µM
[2]
  MIC: > 100 mg/L

## COC(=O)/C=C1\Nc2cc(Cl)ccc2OC1=O
[7]
  Ki: 18.5 µM
[8]
  Ki: 22.5 µM
[1]
  IC50: 46.3 µM
[2]
  MIC: 5 mg/L (≈ 19.7 µM)

## Cc1ccc2c(c1)N/C(=C\C(=O)c1ccccc1Cl)C(=O)O2
[3]
  inhibition: inactive
Escherichia coli [4]
  growth inhibition (GI): Active
Staphylococcus aureus
  growth inhibition (GI): Active
[2]
  MIC: 100 mg/L (≈ 319 µM)

## COC(=O)/C=C1\Nc2c(C)cccc2OC1=O
[1]
  IC50: 24.1 µM
[2]
  MIC: 25 mg/L (≈ 107 µM)

## COC(=O)/C=C1\Nc2ccc([N+](=O)[O-])cc2OC1=O
[1]
  IC50: 20.3 µM
[2]
  MIC: > 100 mg/L

## Cc1ccc2c(c1)OC(=O)/C(=C/C(=O)c1ccccc1Cl)N2
[3]
  inhibition: inactive
Escherichia coli [4]
  growth inhibition (GI): Active
Staphylococcus aureus
  growth inhibition (GI): Active
[2]
  MIC: > 100 mg/L

## O=C1Oc2cc(F)ccc2N/C1=C\C(=O)c1ccccc1Cl
[3]
  inhibition: inactive
Escherichia coli [4]
  growth inhibition (GI): Active
Staphylococcus aureus
  growth inhibition (GI): Active
[2]
  MIC: 1.56 mg/L (≈ 4.91 µM)

## COC(=O)/C=C1\Nc2ccccc2SC1=O
Mycobacterium avium
  Activity: >64 µg/mL
[1]
  IC50: > 140 µM
[2]
  MIC: > 100 mg/L

## CC(C)CC(=O)/C=C1\Nc2cc(Cl)ccc2OC1=O
Escherichia coli [5]
  inhibition: inactive
[6]
  inhibition: 98%

## COC(=O)/C=C1\Nc2cc([N+](=O)[O-])ccc2OC1=O
[1]
  IC50: 28.2 µM
[2]
  MIC: 50 mg/L (≈ 189 µM)

## COC(=O)/C=C1\Nc2cc(C)ccc2OC1=O
[1]
  IC50: 23.1 µM
[2]
  MIC: > 100 mg/L

## COC(=O)/C=C1\Nc2ccc(C)cc2OC1=O
[1]
  IC50: 18.2 µM
[2]
  MIC: 100 mg/L (≈ 429 µM)

## O=C1Oc2ccccc2N/C1=C\C(=O)c1ccccc1Cl
[3]
  inhibition: inactive
Escherichia coli [4]
  growth inhibition (GI): Active
Staphylococcus aureus
  growth inhibition (GI): Active
[2]
  MIC: 3.13 mg/L (≈ 10.4 µM)

## O=C1Oc2ccc(Cl)cc2N/C1=C\C(=O)c1ccccc1Cl
[3]
  inhibition: inactive
Escherichia coli [4]
  growth inhibition (GI): Active
Staphylococcus aureus
  growth inhibition (GI): Active
[2]
  MIC: 12.5 mg/L (≈ 37.4 µM)

## COC(=O)/C=C1\Nc2cc(F)ccc2OC1=O
[7]
  Ki: 10.1 µM
[8]
  Ki: 11.5 µM
[1]
  IC50: 27 µM
[2]
  MIC: 0.63 mg/L (≈ 2.66 µM)

## O=C1Oc2ccc(F)cc2N/C1=C\C(=O)c1ccccc1Cl
[3]
  inhibition: inactive
Escherichia coli [4]
  growth inhibition (GI): Active
Staphylococcus aureus
  growth inhibition (GI): Active
[2]
  MIC: 3.13 mg/L (≈ 9.85 µM)

## Cc1ccc2c(c1)N/C(=C\C(=O)CC(C)C)C(=O)O2
Escherichia coli [5]
  inhibition: inactive
[6]
  inhibition: 77.3%
